Biological target: T1, Human MTAP (Homo sapiens, UniProt Q13126)
T1 construct: six-histidine tag (His6) (N); made in house; host or cells: E. coli BL21 DE3
T1 sequence (Q13126 1-283): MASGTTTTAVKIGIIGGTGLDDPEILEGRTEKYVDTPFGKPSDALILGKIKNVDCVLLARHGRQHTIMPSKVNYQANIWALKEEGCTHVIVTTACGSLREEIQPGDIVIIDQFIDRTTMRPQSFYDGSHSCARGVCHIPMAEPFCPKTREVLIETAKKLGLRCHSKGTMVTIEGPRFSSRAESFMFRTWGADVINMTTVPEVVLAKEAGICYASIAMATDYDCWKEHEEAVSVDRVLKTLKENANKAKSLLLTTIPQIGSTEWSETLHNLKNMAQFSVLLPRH
Test: MTAP substrate assay, coupled spectrophotometric (adenine, xanthine oxidase)
Assay type: biochemical
Details: 2 nM MTAP; for activity at 50 µM: 10 min, read-out: MT-A—50: initial velocity as a percentage of the initial velocity with MTA as substrate; for MT-A—10: initial velocity as a percentage of the initial velocity with MTA as substrate: compound 10 uM, relative to MTA at 10 uM
Method in brief: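 Detection was xanthine oxidase-coupled (0.8 units/ml), reading adenine-derived absorbance at 305 nm over 10 min in potassium phosphate/DTT buffer at 37° C, with N-His6 enzyme purified from E. coli.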

[1] = compound 50 uM, relative to MTA at 50 uM

Compound	activity at 50 µM [1] [%]	MT-A—10: initial velocity as a percentage of the initial velocity with MTA as substrate [%]	MT-A—50: initial velocity as a percentage of the initial velocity with MTA as substrate [1] [%]
CC(C)(C)OC(=O)NCCSC[C@H]1O[C@@H](n2cnc3c(N)ncnc32)[C@H](O)[C@@H]1O [2(G)(39), tert-butyl [2-({[(2S, 3S, 4R, 5R)-5-(6-amino-9H-purin-9-yl)-3,4-dihydroxytetrahydro-furan-2-yl]methyl}thio)-ethyl]carbamate]	8	7	–
Nc1ncnc2c1ncn2[C@@H]1O[C@H](CSc2c[nH]c3ccccc23)[C@@H](O)[C@H]1O [2(G)(106), (2R, 3R, 4S, 5S)-2-(6-amino-9H-purin-9-yl)-5-[(1H-indol-3-ylthio)-methyl]-tetrahydrofuran-3,4-diol]	3	6	–
CC(C)(C)c1ccc(SC[C@H]2O[C@@H](n3cnc4c(N)ncnc43)[C@H](O)[C@@H]2O)cc1 [2(G)(21), (2R, 3R, 4S, 5S)-2-(6-amino-9H-purin-9-yl)-5-{[(4-tert-butylphenyl)thio]methyl}tetrahydrofuran-3,4-diol]	9	12	–
Cc1cc(N)c(SC[C@H]2O[C@@H](n3cnc4c(N)ncnc43)[C@H](O)[C@@H]2O)cc1C [2(G)(84)]	5	4	–
Nc1ncnc2c1ncn2[C@@H]1O[C@H](CSCCc2ccncc2)[C@@H](O)[C@H]1O [2(G)(58), (2R, 3R, 4S, 5S)-2-(6-amino-9H-purin-9-yl)-5-{[(2-pyridin-4-ylethyl)thio]methyl}tetra-hydrofuran-3,4-diol]	47	38	–
Nc1ncnc2c1ncn2[C@@H]1O[C@H](CSc2nc(O)c3cc[nH]c3n2)[C@@H](O)[C@H]1O [2(G)(64), (2R, 3R, 4S, 5S)-2-(6-amino-9H-purin-9-yl)-5-{[(4-hydroxy-7H-pyrrolo[2,3-d]pyrimidin-2-yl)thio]methyl}tetra-hydrofuran-3,4-diol]	48	48	–
Nc1ncnc2c1ncn2[C@@H]1O[C@H](CSc2cccc(Cl)c2)[C@@H](O)[C@H]1O [2(G)(98), (2R, 3R, 4S, 5S)-2-(6-amino-9H-purin-9-yl)-5-{[(3-chlorophenyl)thio]-methyl}tetrahydrofuran-3,4-diol]	18	20	–
Nc1ncnc2c1ncn2[C@@H]1O[C@H](CSc2nccnc2CCc2ccccc2)[C@@H](O)[C@H]1O [2(G)(94), (2R, 3R, 4S, 5S)-2-(6-amino-9H-purin-9-yl)-5-({[3-(2-phenylethyl)-pyrazin-2-yl]thio}methyl)tetrahydrofuran-3,4-diol]	5	5	–
Nc1ncnc2c1ncn2[C@@H]1O[C@H](CSCC(=O)Nc2ccccc2)[C@@H](O)[C@H]1O [2(G)(104), 2-({[(2S, 3S, 4R, 5R)-5-(6-amino-9H-purin-9-yl)-3,4-dihydroxytetrahydro-furan-2-yl]methyl}thio)-N-phenylacetamide]	15	5	–
Cc1nnc(SC[C@H]2O[C@@H](n3cnc4c(N)ncnc43)[C@H](O)[C@@H]2O)n1C [2(G)(67), (2R, 3R, 4S, 5S)-2-(6-amino-9H-purin-9-yl)-5-{[(4,5-dimethyl-4H-1,2,4-triazol-3-yl)thio]methyl}tetra-hydrofuran-3,4-diol]	47	45	–
Nc1ncnc2c1ncn2[C@@H]1O[C@H](CSc2cccc(C(=O)O)c2)[C@@H](O)[C@H]1O [2(G)(90), 3-({[(2S, 3S, 4R, 5R)-5-(6-amino-9H-purin-9-yl)-3,4-dihydroxytetrahydro-furan-2-yl]methyl}thio)benzoic acid]	8	3	–
Cc1occc1SC[C@H]1O[C@@H](n2cnc3c(N)ncnc32)[C@H](O)[C@@H]1O [2(G)(37), (2R, 3R, 4S, 5S)-2-(6-amino-9H-purin-9-yl)-5-{[(2-methyl-3-furyl)thio]methyl}tetra-hydrofuran-3,4-diol]	26	10	–

Results, then the compound that gave them:

activity at 50 µM [1] [%]	MT-A—10: initial velocity as a percentage of the initial velocity with MTA as substrate [%]	MT-A—50: initial velocity as a percentage of the initial velocity with MTA as substrate [1] [%]	Compound
37	30.5	–	Nc1ncnc2c1ncn2[C@@H]1O[C@H](CSc2nc3ccccc3o2)[C@@H](O)[C@H]1O [2(G)(122), (2R, 3R, 4S, 5S)-2-(6-amino-9H-purin-9-yl)-5-[(1,3-benzoxazol-2-ylthio)-methyl]tetrahydrofuran-3,4-diol]
19	8	–	Nc1ncnc2c1ncn2[C@@H]1O[C@H](CSc2ccc(/C=C/C(=O)O)cc2)[C@@H](O)[C@H]1O [2(G)(108), (2E)-3-[4-({[(2S, 3S, 4R, 5R)-5-(6-amino-9H-purin-9-yl)-3,4-dihydroxytetra-hydrofuran-2-yl]methyl}thio)phenyl]acrylic acid]
22	23	–	Nc1ncnc2c1ncn2[C@@H]1O[C@H](CSC[C@@H]2NC(=O)NC2=O)[C@@H](O)[C@H]1O [2(G)(123), (5R)-5-[({[(2S, 3S, 4R, 5R)-5-(6-amino-9H-purin-9-yl)-3,4-dihydroxytetra-hydrofuran-2-yl)methyl}thio)methyl]imidazo-lidine-2,4-dione]
–	5	2	(2R, 3R, 4S, 5S)-2-(6- amino-9H-purin-9-yl)-5- {[(5-chloro-1H- yl)thio]methyl}tetrahydro- furan-3,4-diol [2(G)(5)]
17	12	–	Nc1ncnc2c1ncn2[C@@H]1O[C@H](CSc2nccn2Cc2ccccc2)[C@@H](O)[C@H]1O [2(G)(160), (2R, 3R, 4S, 5S)-2-(6-amino-9H-purin-9-yl)-5-{[(1-benzyl-1H-imidazol-2-yl)thio]methyl}tetra-hydrofuran-3,4-diol]
11	29	–	CC(=O)NCCSC[C@H]1O[C@@H](n2cnc3c(N)ncnc32)[C@H](O)[C@@H]1O [2(G)(114), N-[2-({[(2S, 3S, 4R, 5R)-5-(6-amino-9H-purin-9-yl)-3,4-dihydroxytetra-hydrofuran-2-yl]methyl}thio)ethyl]acetamide]
28	14.5	–	CNC(=O)c1ccccc1SC[C@H]1O[C@@H](n2cnc3c(N)ncnc32)[C@H](O)[C@@H]1O [2(G)(161), 2-({[(2S, 3S, 4R, 5R)-5-(6-amino-9H-purin-9-yl)-3,4-dihydroxytetrahydro-furan-2-yl]methyl}thio)-N-methylbenzamide]
54.5	64.5	–	CCCCCCCCCSC[C@H]1O[C@@H](n2cnc3c(N)ncnc32)[C@H](O)[C@@H]1O [2(G)(121), (2R, 3R, 4S, 5S)-2-(6-amino-9H-purin-9-yl)-5-[(nonylthio)methyl]tetra-hydrofuran-3,4-diol]

Reference: patent publication US20040043959A1, “Combination therapies for treating methylthioadenosine phosphorylase deficient cells” (priority 2002, published 2004)
